Results from patent US20130316389A1, “Method and System for Determining Characteristics of an Embryo and Uses Thereof” (University of Plymouth, priority 2010, published 2013).

System: zebra fish (Danio rerio) embryos
Test: Movement pattern analysis of zebra fish embryos subjected to challenge (Example 5)
Type: in vivo
Conditions: 30 minutes exposure
Method: Images of the movement of each subject embryo were recorded for a period of ten minutes. The imaging apparatus comprised a 4 megapixel monochrome camera (AVT Pike 421) operating at 15 Hz with a 1600×1200 pixel region of interest, connected to a zooming optic lens system (Keyence VHZ100R).
This temporal tracking technique first extracts corner features from each image. Thereafter, image features are registered from frame to frame and assigned a velocity variance to each, A feature with a high velocity variance was rejected, as indicating inaccurate tracking. The remaining features were used in subsequent analysis of the movement pattern of the embryo.
Four parameters of motion of the subject embryo were extracted from each frame of the image data and compared with the corresponding parameters in the preceding frames. The four parameters of motion were positive and negative angles of rotation, and Rho-theta angular changes to the centre of mass for the embryo. The centre of mass of the embryo was determined by determining the X and Y coordinates of every point of motion detected. The X and Y coordinates were summed to provide mean values for X and Y.
The resulting data were analysed for spectral content using the Fast Discrete Fourier Transform (FDFT), to generate data relating to the frequency of motion of the subject embryo. […] 18 frequency bins were analysed from the FDFT analysis. […]

## CCO [ethanol]
1.5% ethanol in deionised water, stage 19 and 21.5 hpf embryos, 27° C
  movement pattern (optic flow) compared with the control embryos: more peaks in positive and negative rotational movement and X and Y displacement of the centre of mass
1.5% ethanol, stage 33 embryos
  distinction from control embryos by ANOSIM analysis of movement patterns: readily distinguished from the stage 33 control embryos
